Laboratory results as given in patent publication US4656269A, “Histidine derivatives” (Kissei Pharmaceutical Co., Ltd., priority 1986, dated 1987).
pIC50: −log10 of the molar value.

Key:
[1] = biological target: T1, renin in human high renin plasma (Homo sapiens, UniProt P00797); test: Renin inhibitory effect in a human high renin plasma (angiotensin I by radioimmunoassay); format: biochemical; conditions: 60 minutes, 37° C., read-out: IC50 (molar concentration)
T1 construct: 500 μl of human high renin plasma; from tissue; host or cells: human high renin plasma
T1 sequence (P00797 67-406): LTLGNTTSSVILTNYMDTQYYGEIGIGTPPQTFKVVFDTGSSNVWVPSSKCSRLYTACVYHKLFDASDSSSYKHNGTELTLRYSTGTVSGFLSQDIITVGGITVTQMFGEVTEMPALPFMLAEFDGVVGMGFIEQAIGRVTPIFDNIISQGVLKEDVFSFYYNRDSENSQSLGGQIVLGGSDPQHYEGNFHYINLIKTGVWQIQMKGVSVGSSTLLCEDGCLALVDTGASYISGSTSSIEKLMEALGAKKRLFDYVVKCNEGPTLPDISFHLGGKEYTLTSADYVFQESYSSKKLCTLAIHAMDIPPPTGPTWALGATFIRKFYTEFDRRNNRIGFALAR

human renin = biological target: T2, human renin (Homo sapiens, UniProt P00797); test: Human renin-sheep renin substrate reaction system in vitro (angiotensin I by radioimmunoassay); format: biochemical; conditions: pH 7.4, 15 minutes, 37° C., read-out: IC50 (molar concentration)
T2 sequence (P00797 67-406): T1 sequence (P00797 67-406)
Method: Human renin-sheep renin substrate reaction system in vitro
To a mixture containing 200 μl of a 125 mM pyrophosphate buffer (pH 7.4), 25 μl of a 20 mM aqueous solution of L-phenylalanyl-L-alanyl-L-prolin as an angiotensin cnverting enzyme inhibitor, 50 μl of semipurified sheep renin substrate (2000 ng angiotensin I/ml), 50 μl of dimethyl sulfoxide solution of an amino acid compound of the present invention and 150 μl of deionized water was added 25 μl of purified human renin (20-30 ng angiotensin I/ml/hr. The mixture was incubated for 15 minutes on a water bath at 37° C., and the reaction mixture was allowed to stand for 5 minutes on a water bath at 100° C. to stop the reaction. After cooling, 200 μl of the solution were taken up and the amount of angiotensin I produced by the addition of renin was determined by radiommunoassay. The inhibitory effect was calculated by the following equation.
As a control, the same procedure as above was carried out by using 50 μl of dimethyl sulfoxide alone in place of the 50 μl of dimethyl sulfoxide solution containing an amino acid compound of the present invention.

pIC50 [1] | pIC50 (human renin) | SMILES
7.60 | 7.11 | COC(=O)C(O)[C@H](CC(C)C)NC(=O)[C@H](Cc1c[nH]cn1)NC(=O)C(CC(=O)N(C)C)Cc1cccc2ccccc12 (mixture of isomers) [Methyl (2RS, 3S)-3-{N-[2-(1-naphthylmethyl)-3-(dimethylcarbamoyl)propionyl]-L-histidyl}amino-2-hydroxy-5-methylhexanoate]
– | 7.18 | CC(C)C[C@H](NC(=O)[C@H](Cc1c[nH]cn1)NC(=O)C(CC(=O)N1CCOCC1)Cc1cccc2ccccc12)[C@@H](O)CC(=O)OC(C)C (stereo partly drawn) [Isopropyl N-[2-(1-naphthylmethyl)-3-(morphlinocarbonyl)propionyl]-L-histidylstatinate]
6.82 | – | COC(=O)C[C@H](O)[C@H](CC(C)C)NC(=O)[C@H](Cc1c[nH]cn1)NC(=O)C(CC(=O)N1CCOCC1)Cc1cccc2ccccc12 (stereo partly drawn) [Methyl N-[2-(1-naphthylmethyl)-3-(morpholinocarbonyl)propionyl]-L-histidylstatinate]
